This is an account of results in patent US11345712B2, “Protein-targeting compounds and pharmaceutical compositions thereof, and their therapeutic applications” (BioTheryX, Inc., priority 2019, dated 2022).

One series concerns MOLM-13 cells. Put plainly: MOLM-13 cell viability assay (CellTiter-Glo). Type of series: cell-based. Particulars: 3 days, concentration of 1 μM. In short, it runs like this:
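MOLM-13 AML cells in RPMI 1640 with 10% FBS, seeded at 2,500 cells/well and exposed to compound or DMSO for 3 days at 37° C, 5% CO2. Viability read as CellTiter-Glo luminescence after 10 min shaking.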
(In general: Cellular ATP, detected with luciferase, serves as a proxy for viable cell number.)
Consider `CC(C)(C)c1ccc(C(=O)C(=O)NCc2cc3c(s2)C(=O)N(C2CCC(=O)NC2=O)C3)cc1` (centres unmarked) [Compound I-45, 2-(4-(tert-butyl)phenyl)-N-((5-(2,6-dioxopiperidin-3-yl)-6-oxo-5,6-dihydro-4H-thieno[2,3-c]pyrrol-2-yl)methyl)-2-oxoacetamide], for which the “Antiproliferative Activity (inhibition, MOLM-13 cell viability)” value was “B (a value less than 80% but no less than 50%)”.

Still in this series, the particulars now being: Homo sapiens, MOLM-13, 72 h, 3 days, concentration of 1 μM, read-out: Antiproliferative Activity (inhibition, MOLM-13 cell viability).
Regarding `COc1c(F)cccc1CC(=O)NCc1cc2c(s1)C(=O)N(C1CCC(=O)NC1=O)C2` (centres unmarked) [II-116, N-((5-(2,6-dioxopiperidin-3-yl)-6-oxo-5,6-dihydro-4H-thieno[2,3-c]pyrrol-2-yl)methyl)-2-(3-fluoro-2-methoxyphenyl)acetamide], the cytotoxicity at 1 µM was below 25%.

Take `Cc1ccc(NC(=O)NCc2cc3c(s2)C(=O)N(C2CCC(=O)NC2=O)C3)cc1C(C)C` (centres unmarked) [II-54, 1-((5-(2,6-dioxopiperidin-3-yl)-6-oxo-5,6-dihydro-4H-thieno[2,3-c]pyrrol-2-yl)methyl)-3-(3-isopropyl-4-methylphenyl)urea]: the cytotoxicity at 1 µM is above 80%.

For the compound `Cc1ccc(C(=O)C(=O)NCc2cccc3c2CN(C2CCC(=O)NC2=O)C3=O)cc1` (centres unmarked) [Compound I-72, N-((2-(2,6-dioxopiperidin-3-yl)-1-oxoisoindolin-4-yl)methyl)-2-oxo-2-(p-tolyl)acetamide], the cytotoxicity at 1 µM is below 25%.

With `CC(C)N(C)c1cccc(NC(=O)NCc2cc3c(s2)C(=O)N(C2CCC(=O)NC2=O)C3)c1` (centres unmarked) [II-56, 1-((5-(2,6-dioxopiperidin-3-yl)-6-oxo-5,6-dihydro-4H-thieno[2,3-c]pyrrol-2-yl)methyl)-3-(3-(isopropyl(methyl)amino)phenyl)urea], the cytotoxicity at 1 µM is above 80%.

On to `Cc1cnc(NC(=O)NCc2scc3c2CN(C2CCC(=O)NC2=O)C3=O)nc1C(F)(F)F` (centres unmarked) [II-40, 1-((5-(2,6-dioxopiperidin-3-yl)-4-oxo-5,6-dihydro-4H-thieno[3,4-c]pyrrol-1-yl)methyl)-3-(5-methyl-4-(trifluoromethyl)pyrimidin-2-yl)urea], for which the cytotoxicity at 1 µM is below 25%.

`O=C1CCC(N2Cc3c(CNC(=O)C(=O)c4ccc(Cl)cc4)cccc3C2=O)C(=O)N1` (centres unmarked) [Compound I-77, 2-(4-chlorophenyl)-N-((2-(2,6-dioxopiperidin-3-yl)-1-oxoisoindolin-4-yl)methyl)-2-oxoacetamide]: the cytotoxicity at 1 µM is below 25%.

As to `Cc1ccc(C(F)(F)C(=O)NCc2scc3c2CN(C2CCC(=O)NC2=O)C3=O)cc1Cl` (centres unmarked) [II-28, 2-(3-chloro-4-methylphenyl)-N-((5-(2,6-dioxopiperidin-3-yl)-4-oxo-5,6-dihydro-4H-thieno[3,4-c]pyrrol-1-yl)methyl)-2,2-difluoroacetamide], the cytotoxicity at 1 µM is below 25%.

Take `Cc1ccc(CC(=O)NCc2scc3c2CN(C2CCC(=O)NC2=O)C3=O)cc1N(C)C` (centres unmarked) [II-68, 2-(3-(dimethylamino)-4-methylphenyl)-N-((5-(2,6-dioxopiperidin-3-yl)-4-oxo-5,6-dihydro-4H-thieno[3,4-c]pyrrol-1-yl)methyl)acetamide]: the cytotoxicity at 1 µM fell in the range of 25 to 50%.

As to `CCN(CC)c1cccc(NC(=O)NCc2cc3c(s2)C(=O)N(C2CCC(=O)NC2=O)C3)c1` (centres unmarked) [II-71, 1-(3-(diethylamino)phenyl)-3-((5-(2,6-dioxopiperidin-3-yl)-6-oxo-5,6-dihydro-4H-thieno[2,3-c]pyrrol-2-yl)methyl)urea], the cytotoxicity at 1 µM is above 80%.

As to `CC(C)[C@@H](N)C(=O)OCN1C(=O)CCC(N2Cc3c(CNC(=O)C(=O)c4ccc(C5(C(F)(F)F)CC5)cc4)cccc3C2=O)C1=O` (stereo partly drawn) [Compound I-64, (2,6-dioxo-3-(1-oxo-4-((2-oxo-2-(4-(1-(trifluoromethyl)cyclopropyl)-phenyl)acetamido)methyl)isoindolin-2-yl)piperidin-1-yl)methyl D-valinate], the cytotoxicity at 1 µM is above 80%.

For `O=C1CCC(N2Cc3c(CNC(=O)C(=O)c4ccc(C5(C(F)(F)F)CC5)cc4)cccc3C2=O)C(=O)N1` (centres unmarked) [Compound I-30, N-((2-(2,6-dioxopiperidin-3-yl)-1-oxoisoindolin-4-yl)methyl)-2-oxo-2-(4-(1-(trifluoromethyl)cyclopropyl)phenyl)acetamide], the cytotoxicity at 1 µM is above 80%.

With `CN(Cc1cccc2c1CN(C1CCC(=O)NC1=O)C2=O)C(=O)C(=O)c1ccc(C(C)(C)C)cc1` (centres unmarked) [Compound I-47, 2-(4-(tert-butyl)phenyl)-N-((2-(2,6-dioxopiperidin-3-yl)-1-oxoisoindolin-4-yl)methyl)-N-methyl-2-oxoacetamide], the cytotoxicity at 1 µM was below 25%.

With `O=C1CCC(N2Cc3cc(CNC(=O)Nc4cccc(N5CCCC5)c4)sc3C2=O)C(=O)N1` (centres unmarked) [II-99, 1-((5-(2,6-dioxopiperidin-3-yl)-6-oxo-5,6-dihydro-4H-thieno[2,3-c]pyrrol-2-yl)methyl)-3-(3-(pyrrolidin-1-yl)phenyl)urea], the cytotoxicity at 1 µM is above 80%.

For the compound `O=C1CCC(N2Cc3c(csc3CNC(=O)NCCCOc3ccccc3)C2=O)C(=O)N1` (centres unmarked) [II-145, 1-((5-(2,6-dioxopiperidin-3-yl)-4-oxo-5,6-dihydro-4H-thieno[3,4-c]pyrrol-1-yl)methyl)-3-(3-phenoxypropyl)urea], the cytotoxicity at 1 µM lay in the range of 50 to 80%.

Take `O=C1CCC(N2Cc3cc(CNC(=O)Nc4c(Cl)cccc4Cl)sc3C2=O)C(=O)N1` (centres unmarked) [II-42, 1-(2,6-dichlorophenyl)-3-((5-(2,6-dioxopiperidin-3-yl)-6-oxo-5,6-dihydro-4H-thieno[2,3-c]pyrrol-2-yl)methyl)urea]: the cytotoxicity at 1 µM is below 25%.

For the compound `O=C1CCC(N2Cc3c(csc3CNC(=O)C(=O)c3ccc(F)cc3)C2=O)C(=O)N1` (centres unmarked) [Compound I-22, 2-(4-fluorophenyl)-N-((5-(2,6-dioxopiperidin-3-yl)-4-oxo-5,6-dihydro-4H-thieno[3,4-c]pyrrol-1-yl)methyl)-2-oxoacetamide], the cytotoxicity at 1 µM is below 25%.

Turning to `Cc1cc(C(=O)C(=O)NCc2cccc3c2CN(C2CCC(=O)NC2=O)C3=O)ccc1C(C)(C)C` (centres unmarked) [Compound I-54, 2-(3-methyl-4-(tert-butyl)phenyl)-N-((2-(2,6-dioxopiperidin-3-yl)-1-oxoisoindolin-4-yl)methyl)-2-oxoacetamide], the cytotoxicity at 1 µM was above 80%.

With `NC(C(=O)NCc1scc2c1CN(C1CCC(=O)NC1=O)C2=O)c1ccc(O)cc1` (centres unmarked) [II-113, 2-amino-N-((5-(2,6-dioxopiperidin-3-yl)-4-oxo-5,6-dihydro-4H-thieno[3,4-c]pyrrol-1-yl)methyl)-2-(4-hydroxyphenyl)acetamide], the cytotoxicity at 1 µM is below 25%.

Turning to `CCN(CC)c1ccc(NC(=O)NCc2cc3c(s2)C(=O)N(C2CCC(=O)NC2=O)C3)cc1C` (centres unmarked) [II-52, 1-(4-(diethylamino)-3-methylphenyl)-3-((5-(2,6-dioxopiperidin-3-yl)-6-oxo-5,6-dihydro-4H-thieno[2,3-c]pyrrol-2-yl)methyl)urea], the cytotoxicity at 1 µM is below 25%.

With `CC(C)(C)C1CCN(C(=O)C(=O)NCc2ccc3c(c2)CN(C2CCC(=O)NC2=O)C3=O)CC1` (centres unmarked) [Compound I-62, 2-(4-(tert-butyl)piperidin-1-yl)-N-((2-(2,6-dioxopiperidin-3-yl)-1-oxoisoindolin-5-yl)methyl)-2-oxoacetamide], the cytotoxicity at 1 µM is above 80%.

Turning to `O=C1CCC(N2Cc3c(CCNC(=O)C(=O)c4ccc(C5(C(F)(F)F)CC5)cc4)cccc3C2=O)C(=O)N1` (centres unmarked) [Compound I-65, N-(2-(2-(2,6-dioxopiperidin-3-yl)-1-oxoisoindolin-4-yl)ethyl)-2-oxo-2-(4-(1-(trifluoromethyl)cyclopropyl)phenyl)acetamide], the cytotoxicity at 1 µM is below 25%.

In the case of `O=C1CCC(N2Cc3c(CNC(=O)C(=O)c4ccc(C5CCNCC5)cc4)cccc3C2=O)C(=O)N1` (centres unmarked) [Compound I-66, N-((2-(2,6-dioxopiperidin-3-yl)-1-oxoisoindolin-4-yl)methyl)-2-oxo-2-(4-(piperidin-4-yl)phenyl)acetamide], the cytotoxicity at 1 µM was below 25%.

Take `CN(C)c1ccc(C(=O)C(=O)NCc2scc3c2CN(C2CCC(=O)NC2=O)C3=O)cc1` (centres unmarked) [Compound I-7, 2-(4-dimethylaminophenyl)-N-((5-(2,6-dioxopiperidin-3-yl)-4-oxo-5,6-dihydro-4H-thieno[3,4-c]pyrrol-1-yl)methyl)-2-oxoacetamide]: the cytotoxicity at 1 µM is below 25%.

With `CC(C)(C)c1ccc(C(F)(F)C(=O)NCc2scc3c2CN(C2CCC(=O)NC2=O)C3=O)cc1` (centres unmarked) [II-129, 2-(4-(tert-butyl)phenyl)-N-((5-(2,6-dioxopiperidin-3-yl)-4-oxo-5,6-dihydro-4H-thieno[3,4-c]pyrrol-1-yl)methyl)-2,2-difluoroacetamide], the cytotoxicity at 1 µM was below 25%.

Regarding `CC(C)c1ccc(CC(=O)NCc2scc3c2CN(C2CCC(=O)NC2=O)C3=O)cc1` (centres unmarked) [II-74, N-((5-(2,6-dioxopiperidin-3-yl)-4-oxo-5,6-dihydro-4H-thieno[3,4-c]pyrrol-1-yl)methyl)-2-(4-isopropylphenyl)acetamide], the cytotoxicity at 1 µM was below 25%.

Take `Cc1ccc(NC(=O)NCc2cc3c(s2)C(=O)N(C2(C)CCC(=O)NC2=O)C3)cc1Cl` (centres unmarked) [II-73, 1-(3-chloro-4-methylphenyl)-3-((5-(3-methyl-2,6-dioxopiperidin-3-yl)-6-oxo-5,6-dihydro-4H-thieno[2,3-c]pyrrol-2-yl)methyl)urea]: the cytotoxicity at 1 µM was below 25%.

For the compound `CN(C)c1cc(NC(=O)NCc2cc3c(s2)C(=O)N(C2CCC(=O)NC2=O)C3)cc(C(F)(F)F)c1` (centres unmarked) [II-50, 1-(3-(dimethylamino)-5-(trifluoromethyl)phenyl)-3-((5-(2,6-dioxopiperidin-3-yl)-6-oxo-5,6-dihydro-4H-thieno[2,3-c]pyrrol-2-yl)methyl)urea], the cytotoxicity at 1 µM is above 80%.

As for `N#Cc1ccc(C(=O)C(=O)NCc2ccc3c(c2)CN(C2CCC(=O)NC2=O)C3=O)cc1` (centres unmarked) [Compound I-90, 2-(4-cyanophenyl)-N-((2-(2,6-dioxopiperidin-3-yl)-1-oxoisoindolin-5-yl)methyl)-2-oxoacetamide], the cytotoxicity at 1 µM is below 25%.
